From patent US9795138B2, “Method for increasing the vigor and/or crop yield of agricultural plants under essentially non-existent pathogen pressure” (Bayer CropScience LP, priority 2009, dated 2017)

What was measured:
peas = assay: Pea seed treatment, greenhouse plant fresh weight, Colby; type: in vivo; settings: 12 days at 20° C., pyraclostrobin 5 g/100 kg seed, SERENADE MAX 173 g/100 kg seed
Description: The active compounds were used applying commercially available formulations and diluted according to the concentrations/dose rates as stated in the respective data tables.
Seed treatment was done to seeds of peas using the Hege Seed Treatment equipment in a sequential approach. Pyraclostrobin was applied with a volume of 850 mL slurry per 100 kg seeds. Afterwards the stated amount of SERENADE® MAX was dissolved in a total volume of 8.3 L water (amount for 100 kg seeds) and applied sequentially in ten steps with drying of the seeds in between. The compounds were used as commercial finished formulations and diluted with water to the stated concentration of the active compound.
Seeds of peas were sown in soil (10 seeds/pot, 10 replications/treatment) and incubated in the greenhouse at 20° C. for 12 days. Plants were harvested and pooled per treatment and the plant fresh weight was determined.
The expected plant fresh weights of active compound mixtures were determined using Colby's formula as defined above [R. S. Colby, “Calculating Synergistic and Antagonistic Responses of Herbicide Combinations,” Weeds 15, 20-22 (1967)] and compared with the observed plant fresh weights.

[1] = test system: maize plants (variety Burrus 616XLR); assay: Maize field trial Carlyle, Ill.: grain yield, Colby; type: in vivo
Description: Maize was planted in 2009 at Carlyle, Ill., U.S.A. The variety Burrus 616XLR was planted at a conventional seeding rate and a row spacing of 76 cm. The trial was setup as a randomized bloc design with six replications. Plot size was 18 m^2. Pyraclostrobin was applied at developmental stage 34/37 (BBCH). Bacillus subtilis QST 713 (SERENADE® MAX) was applied to the maize plants at developmental stage 34/37 (BBCH) followed by a second application at developmental stage 55/57 (BBCH). Bacillus subtilis QST 713 (SERENADE® MAX) in combination with pyraclostrobin were applied as a tank mix at the developmental stage 34/37 (BBCH). The active ingredients were applied using commercial formulations SERENADE® MAX (14.3%, WP with 7.3×10^9 cfu/g) and HEADLINE® (250 g/L, EC). Total spray volume for foliar applications was 200 L/ha. […] At maturity the crop was harvested and grain yield was measured as t/ha (Table 10).
The expected yield increase by the combination of the active compounds was estimated using Colby's formula (Colby, S. R., “Calculating Synergistic and Antagonistic Responses of Herbicide Combinations,” Weeds, 15, pp. 20-22, 1967) and compared with the observed yield increase. […]

Q: `COC(=O)N(OC)c1ccccc1COc1ccn(-c2ccc(Cl)cc2)n1` [Pyraclostrobin, pyraclostrobin] was tested. Which “Fresh Weight” value (peas) did it give?
A: 47 g

Q: What about the “Grain Yield (t/ha)” value ([1]; maize, pyraclostrobin 0.44 L/ha solo (0.3 L/ha in mix) at BBCH 34/37, SERENADE MAX 3.0 kg/ha at 34/37 (solo also 55/57)) of the same compound?
A: 8.32 t/ha

Q: What about the “Observed Yield Increase (t/ha)” value ([1]; vs untreated, same treatments) of the same compound?
A: 0.05 t/ha
